Data taken from patent publication US9133146B2, “Benzodioxane inhibitors of leukotriene production” (Boehringer Ingelheim International GmbH, priority 2011, dated 2015).

Test system: synthesis of LTB4 in human whole blood
Assay: human whole blood (HWB) assay, LTB4 production inhibition after calcimycin
Type: cell-based
Conditions: heparinized human whole blood, calcimycin 20 μM, 37° C., plasma LTB4
Method: The compounds of the invention are additionally tested in a human whole blood (HWB) assay to determine their ability to inhibit the synthesis of LTB4 in a cellular system. Compounds are combined with heparinized human whole blood and incubated for 15 minutes at 37° C. Calcimycin (20 μM final, prepared in phosphate-buffered saline, pH 7.4) is then added and the mixture is incubated for another 30 minutes at 37° C. The samples are centrifuged for 5 min at low speed (1500×g) and the plasma layer is removed. Plasma LTB4 concentrations are then measured using an antibody-based homogenous time-resolved fluorescence method (CisBio, Bedford, Mass.). In general, the preferred potency range (IC50) of compounds in the HWB assay is between 10 nM to 10 μM, the more preferred potency range is 10 nM to 1 μM, and the most preferred potency range is 10 nM to 100 nM.

| IC50 [nM] | Compound |
| --- | --- |
| 285 | O[C@@H]1CCN(Cc2ccc(C3COc4ccccc4O3)cc2)C1 (mixture of isomers) [Example 9, (3S)-1-[4-(2,3-dihydro-1,4-benzodioxin-2-yl)benzyl]pyrrolidin-3-ol] |
| 91.1 | CC(C)(O)C(=O)NC1CCN(Cc2ccc([C@H]3COc4ccccc4O3)cc2)CC1 [Example 220, N-(1-{4-[(2S)-2,3-dihydro-1,4-benzodioxin-2-yl]benzyl}piperidin-4-yl)-2-hydroxy-2-methylpropanamide] |
| 305 | c1ccc2c(c1)OC[C@H](c1ccc(CN3CCC[C@H]4CCCCC43)cc1)O2 (stereo in doubt) [Example 85, (4aR,8aS)-1-{4-[(2S)-2,3-dihydro-1,4-benzodioxin-2-yl]benzyl}decahydroquinoline] |

| Compound | IC50 [nM] |
| --- | --- |
| c1cnc2c(c1)OC[C@H](c1ccc(CN3[C@H]4CC[C@@H]3CC4)cc1)O2 [Example 145, (3S)-3-{4-[(1s,4s)-7-azabicyclo[2.2.1]hept-7-ylmethyl]phenyl}-2,3-dihydro[1,4]dioxino[2,3-b]pyridine] | 28.4 |
